Marks after values point to notes of the source that are not given here.
Legend:
[1] = DPPH radical scavenging activity assay; conditions: mean ± SD; for IC50: isolated compounds, test concentrations 15.625 to 500 μM
Protocol: The DPPH radical scavenging activity assay was determined according to the reported method with minor modifications. Briefly, extract and four fractions were dissolved in methyl alcohol at concentrations ranging from 62.5 to 1000 μg/mL, which were prepared to mix with a methyl alcohol solution of DPPH (0.2 mM, 100 μL) on a 96-well plate. After that, shaken gently and stood at room temperature for 30 min, the optical density (OD) 517 nm in each well were determined by a microplate reader. Triplicates of each sample were run, and the mean values were calculated. Ascorbic acid was chosen as positive control. The percentage inhibition (%) for each sample was calculated by the following formula: (1) Inhibition %=1−Abssamples−Abscontrol/Absblank ×100%.
DPPH solution was replaced by a methanol solution, which was used as control, and samples were replaced by the methanol solution as the black. All the results were expressed as means ± standard deviation (SD).
The antioxidant and α-glucosidase inhibitory activities of each isolated compound at concentrations ranging from 15.625 to 500 μM (DPPH) and from 125 to 2000 μM (α-glucosidase inhibitory), respectively, were determined using the methods described in Section 2.3.

[2] = biological target: α-Glucosidase from Baker's yeast; test: α-Glucosidase inhibitory assay (p-NPG substrate, 96-well plate); format: biochemical; conditions: isolated compounds; for IC50: test concentrations 125 to 2000 μM, mean ± SD
Protocol: The α-glucosidase inhibitory assay was performed on a 96-well plate by using a microplate reader according to the published method with minor modifications. […] […] After 5 min incubation at 37°C, 20 μL of 4-pNPG (p-nitrophenyl-α-D-glucopyranoside) (2.5 mM) was added and incubated for 15 min; then, 80 μL of Na2CO3 (0.2 M) was added to stop the reaction. The optical density (OD) values were determined using a microplate reader at 405 nm. Triplicates of each sample were run, and the mean values were calculated. […] The IC50 was calculated by using SPSS software.

α-glucosidase = test: Inhibitory kinetic analysis (Lineweaver-Burk and Dixon plots); format: biochemical, Baker's yeast; conditions: substrate 0.8-5.0 mM, enzyme 1.3 U/mL; for Ki: determined by Dixon plots; for α-Glucosidase inhibitory Inhibition mode: determined by Lineweaver-Burk plots
Protocol: The kinetic mechanisms of active compounds 1 and 2 towards α-glucosidase were determined by the graphical views of Dixon and Lineweaver-Burk plots. The concentration ranges for the substrates were 0.8-5.0 mM. The concentration of the enzyme was kept constant at 1.3 U/mL. Lineweaver-Burk plots were established to evaluate the type of inhibition. Dixon plots were used to calculate inhibitory constant (Ki) values of the tested compounds. Each kinetic analysis was implemented in triplicate from which mean Ki values.

| Compound | IC50 [1] [µM] | other results |
| --- | --- | --- |
| O=C(O)/C=C/c1ccc(O)c(O)c1 [Compound 12, Caffeic acid] | 36.91 ± 0.3 | – |
| O=C(O)c1cc(O)c(O)c(O)c1 [Compound 6, Gallic acid] | 37.8 ± 2.52 | IC50 [2]: 313 ± 3.71 µM |
| O=C(OC[C@H]1O[C@@H](OC(=O)c2cc(O)c(O)c(O)c2)[C@H](OC(=O)c2cc(O)c(O)c(O)c2)[C@@H](OC(=O)c2cc(O)c(O)c(O)c2)[C@@H]1OC(=O)c1cc(O)c(O)c(O)c1)c1cc(O)c(O)c(O)c1 [Compound 1, 1,2,3,4,6-Penta-O-galloyl-β-D-glucoside] | 2.93 ± 1.06 | Ki (α-glucosidase): 0.73295 ± 0.00022 µM; α-Glucosidase inhibitory Inhibition mode (α-glucosidase): Noncompetitive |
| O=C(O)c1ccc(O)c(O)c1 [Compound 7, 3,4-Dihydroxybenzoic acid] | 38.2 ± 1.03 | IC50 [2]: 425 ± 31.5 µM |
| O=C1O[C@H]([C@@H](O)CO)C(O)=C1O [Ascorbic acid, reference compound] | – | DPPH assay IC50 ([1]; extract and fractions, test concentrations 62.5 to 1000 μg/mL, n = 3): 9.37 ± 0.84^e μg/mL |
| O=C(O[C@@H]1O[C@H](CO)[C@@H](O)[C@H](O)[C@H]1O)c1cc(O)c(O)c(O)c1 [Compound 4, 1-O-(3,4,5-Trihydroxybenzoyl)-β-D-glucoside] | 52.8 ± 0.93 | – |
| O=C(OCC(O)CO)c1cc(O)c(O)c(O)c1 (stereo not shown) [Compound 9, 1-Glycerol gallate] | > 500 | α-glucosidase inhibitory activity (in words) [2]: no inhibitory activity |
| COc1cc(/C=C/C(=O)O)ccc1O [Compound 11, Ferulic acid] | 95 ± 2.41 | – |
| O=C(OCC1OC(OC(=O)c2cc(O)c(O)c(O)c2)C(OC(=O)c2cc(O)c(O)c(O)c2)C(OC(=O)c2cc(O)c(O)c(O)c2)C1OC(=O)c1cc(O)c(O)c(O)c1)c1cc(O)c(O)c(O)c1 [Compound 2, 1,2,3,4,6-Penta-O-galloyl-α-D-glucoside] | 22.3 ± 0.74 | Ki (α-glucosidase): 0.09837 ± 0.00031 µM; α-Glucosidase inhibitory Inhibition mode (α-glucosidase): Competitive |
| CCOC(=O)c1cc(O)c(O)c(O)c1 [Compound 10, Ethyl gallate] | 38 ± 1.94 | α-glucosidase inhibitory activity (in words) [2]: no inhibitory activity |
| Oc1cc(O)c2c(c1)O[C@H](c1ccc(O)c(O)c1)[C@H](O)C2 [Compound 16, Epicatechin] | 40.1 ± 0.82 | – |
| COC(=O)c1cc(O)c(O)c(O)c1 [Compound 5, Methyl galate] | 32.3 ± 0.48 | α-glucosidase inhibitory activity (in words) [2]: no inhibitory activity |
| O=c1c(O)c(-c2ccc(O)c(O)c2)oc2cc(O)cc(O)c12 [Compound 13, Quercetin] | 60 ± 0.82 | IC50 [2]: 138 ± 7.07 µM |
| O=C(OC[C@H]1O[C@@H](OC(=O)c2cc(O)c(O)c(O)c2)[C@H](OC(=O)c2cc(O)c(O)c(O)c2)[C@@H](OC(=O)c2cc(O)c(O)c(O)c2)[C@@H]1O)c1cc(O)c(O)c(O)c1 [Compound 3, 1,2,3,6-Tetra-O-galloyl-β-D-glucoside] | 23.7 ± 0.52 | IC50 [2]: 243.3 ± 1.43 µM |
